# Source: patent US20210186930A1, “Methods of Treating Renal Disease Associated With Chronic Kidney Disease Such as Alport Syndrome” (UNIVERSITY OF MIAMI, priority 2018, published 2021)
# Entries after “also recorded” stand apart in the source; their conditions may differ.
# Experiments:
# Col4a3−/− mice = assay: Mesangial expansion (PAS) and renal fibrosis (Picrosirius Red) in Col4a3-/- mice (Example 3, FIG. 6); assay type: in vivo, mouse; conditions: treated vs untreated Col4a3−/− mice; ezetimibe 5 mg/kg, ramipril 10 mg/kg, 4 weeks
# Method: Assessment of mesangial expansion: Periodic acid-Schiff (PAS) staining of 4 μm-thick tissue sections was performed using a standard protocol. Twenty glomeruli per section were analyzed for mesangial expansion by semi quantitative analysis (scale 0-4) performed by two blinded independent investigators.
# (§1) Picrosirius red staining: Paraffin-embedded sections (4 μm thick) were deparaffinized with xylene and a graded alcohol series. Sections were rinsed for 5 min in distilled water, stained for 1 hour with picrosirius red in saturated aqueous picric acid, examined under a light microscope and photomicrographs were taken. Histological images were visualized using a light microscope (Olympus BX 41, Tokyo, Japan) at 40× magnification and analyzed using Image J software.
# The following experiment was performed to investigate which treatment, ezetimibe (EZ), ramipril (Ramp) or the combination of both drugs (EZ+Ramp), would best preserve renal function in Col4a3 knockout mice, all drugs were administered to 4-week-old Col4a3−/− mice for 4 weeks as follows: ezetimibe (Ez) was orally administered at a concentration of 5 mg/kg BW, ramipril was added to the drinking water at a concentration that would lead to a daily ramipril uptake of 10 mg/kg BW. All mice were sacrificed at 8 weeks of age. The following four groups of mice were analyzed: Col4a3^+/+, Col4a3^−/−+Ez, Col4a3^−/−+Ramp and Col4a3^−/−+Ez+Ramp.
# PAS staining was performed to detect and quantify mesangial expansion, Picrossirius Red staining to detect and quantify renal fibrosis in treated compared to untreated Col4a3^−/− mice. […] Representative images for PAS staining are shown in FIG. 6A and of Picrosirius Red staining to detect fibrosis in […]. Bar graph quantifications for both are shown in FIGS. 6C and 6D, respectively.
# [1] = cited from earlier work
# Col4a3 knockout mice = assay: Fibrosis, lipid droplets, serum and kidney cortex lipids, CD36 in Col4a3 knockout mice treated with ezetimibe (FIG. 4); assay type: in vivo, mouse
# Method: Determination of cholesterol content in kidney cortex: Tissue from kidney cortexes was homogenized in hypotonic buffer (10 mM HEPES pH7.0, 15 mM KCl, 1 mM MgCl2, 10 mM phosphatase inhibitors). Lipids from 100 μl of the homogenate were extracted with 1 ml of hexane:isopropanol (3:2, v/v), dried and reconstituted in 100 μl of isopropanol-NP40 (9:1, v/v). Tissue fractions not soluble in the organic solvent, were further dried, reconstituted in 8 M urea, and assayed for protein concentration using Pierce BCA protein assay kit (ThermoFisher Scientific, MA, USA). Total cholesterol from lipid extracts was determined by the enzymatic method as previously described (Robinet, P., Wang, Z., Hazen, S. L. & Smith, J. D. A simple and sensitive enzymatic method for cholesterol quantification in macrophages and foam cells. Journal of lipid research 51, 3364-3369, 2010). Briefly, endogenous peroxides present were eliminated by incubating samples and standards with catalase (Sigma-Aldrich, MO, USA), 45 U/ml final concentration, for 15 min at 37° C. Then, 50 μl of samples and standards were mixed with 50 μl of reagent A (2 U/ml cholesterol oxidase (Sigma-Aldrich, MO, USA), 0.6 U/ml cholesterol esterase (MP Biomedicals), 2 U/ml HRP (Sigma), 100 μM Amplex Red (ThermoFisher Scientific, MA, USA) in black 96-well plates. The plates were incubated at 37° C. for 30 min and fluorescence was read at 530 nm (Ex) and 580 nm (Em) in a plate reader (SpectraMax M5, Molecular Devices, CA, USA). Cholesteryl esters (CE) quantification was based on the method described from Toshimi M, et al. Briefly, 25 μl of samples was mixed with 150 μl of free cholesterol decomposition reagent (45 U/ml catalase, 1 U/ml cholesterol oxidase) and incubated 2-4 h at 37° C., and then the final volume was brought up to 250 μl prior to determining free and total cholesterol remaining. Total cholesterol remaining was determined by mixing 50 μl of end product reaction with 50 μl of reagent A, as described above. Free cholesterol remaining was determined similarly, but without including cholesterol esterase in the reagent. CE was calculated by the formula CE=(TC−FC)×DF, where TC is the total cholesterol remaining, FC the free cholesterol remaining and DF the dilution factor, in this case, 10.
# Lipid content: Oil Red 0 staining was performed on frozen tissue sections and triglyceride content was determined on snap frozen kidney tissue as described above.
# Mouse models: Mice in which exon 5 of a3 chain of collagen type IV is deleted (Col4a3 KO) were obtained from the Jackson Laboratory (#002908, 129-Col4a3tm1Dec/J). Col4a3 heterozygous littermates were bred to generate Col4a3 KO mice. Four groups of mice with n=3-10 per group were studied. The four groups consisted of: 1) wildtype controls+vehicle, 2) wildtype controls+ezetimibe, 3) Col4a3 KO+vehicle, 4) Col4a3 KO+ezetimibe. ezetimibe was administered by oral gavage daily starting at 4 weeks of age at a concentration of 5 mg/kg body weight. […] Mice were sacrificed at 8 weeks of age when progression to end-stage renal failure had occurred.
# Serology: Immediately prior to sacrifice, a blood sample was collected for the determination of BUN and lipid panel analysis in the comparative laboratory core facility of the University of Miami. Serum creatinine was determined by tandem mass spectrometry (UAB-UCSD O'Brien Core Center, University of Alabama).
# as §1
# [2] = Col4a3 knockout mice, ezetimibe treated vs untreated
structure (smiles),measurement,setting,value
O=C1[C@H](CC[C@H](O)c2ccc(F)cc2)[C@@H](c2ccc(O)cc2)N1c1ccc(F)cc1 [ezetimibe],"mesangial expansion (PAS staining, score)",Col4a3−/− mice,significant reduction; also recorded: significantly reduced mesangial expansion
same,renal fibrosis (Picrosirius Red staining),Col4a3−/− mice,significant reduction; also recorded: significantly reduced
same,"solubility in ethanol, methanol, and acetone",[1],freely to very soluble
same,solubility in water,[1],practically insoluble
same,total cholesterol levels in kidney cortexes,"Col4a3 knockout mice; Col4a3 knockout mice, ezetimibe treated or untreated",No change in total cholesterol levels
same,fibrosis (PicroSirius Red staining),Col4a3 knockout mice; [2],significant reduction of fibrosis
same,glomerular lipid droplets (Oil Red O staining),Col4a3 knockout mice; [2],significant reduction of glomerular lipid droplets
same,serum triglyceride levels,Col4a3 knockout mice; [2],significantly decreased
same,total serum cholesterol levels,Col4a3 knockout mice; [2],significantly decreased
same,triglyceride content in kidney cortexes,Col4a3 knockout mice; [2],significantly reduces triglyceride content
same,CD36 expression,Col4a3 knockout mice; ezetimibe treated Col4a3 knockout mice (untreated knockout also increased),significantly increased
same,ratio of esterified to total cholesterol in kidney cortexes,Col4a3 knockout mice; ezetimibe treated Col4a3 knockout mice compared to controls (untreated knockout also increased),significantly increased
